Test results: patent publication US20200354327A1, “COMPOUND HAVING STAT3 INHIBITORY ACTIVITY AND USE THEREOF” (CYTUS H&B CO., LTD., priority 2017, published 2020)

Target: STAT3 (Homo sapiens, UniProt P40763)
Experiment: Western blot of the 46 Table 1 compounds in Hodgkin lymphoma cell lines L540 and HDLM-2
Assay type: cell-based
Set-up: endogenous in cells; host or cells: L540, HDLM-2, U87-MG, MDA-MB-231, further human glioblastoma and breast cancer lines
Details: for STAT3 inhibitory efficacy, first screening: L540 and HDLM-2; for STAT3 inhibitory efficacy, secondary screening: L540 and HDLM-2, 50 μM; for phosphorylation of STAT tyrosine 705: L540 and HDLM-2, various concentrations
Procedure: The human cancer cell lines used in the experiment were U87-MG (human malignant glioblastoma) and MDA-MB-231 (human malignant breast cancer) cell lines, and various kinds of human-derived blood and solid cancer cells including these human cancer cell lines were cultured as previously described (Jung J E, et al. FASEB J. 19, 1296-1298 (2005)). The human Hodgkin lymphoma cancer cell lines L540 and HLDM-2 used in the experiment were obtained from the German Collection of Microorganism and Cell Cultures (DSMZ, Germany) and cultured using RPMI 1640 medium containing 20% FBS in a 5% CO2 incubator at a temperature of 37° C.
Western blot analysis was performed (Jung J E, et al. FASEB J. 19, 1296-1298 (2005)). The cells were washed two times with PBS and suspended in the lysate (50 mM Tris-HCl, pH 7.4, 350 mM NaCl, 1% Triton X-100, 0.5% Nonidet P-40, 10% glycerol, 0.1% SDS, 1 mM EDTA, 1 mM EGTA, 1 mM Na3VO4, 1 mM PMSF, protease and phosphorylation inhibitor) and the cell membrane and nuclear membrane were crushed to lyse the cells. The insoluble protein fraction was removed by centrifugation, and the supernatant was mixed with SDS electrophoresis buffer and electrophoresis (SDS-PAGE) was performed to detect the protein with the desired antibody and to confirm the protein expression level.

Sequence of STAT3 (P40763 whole entry): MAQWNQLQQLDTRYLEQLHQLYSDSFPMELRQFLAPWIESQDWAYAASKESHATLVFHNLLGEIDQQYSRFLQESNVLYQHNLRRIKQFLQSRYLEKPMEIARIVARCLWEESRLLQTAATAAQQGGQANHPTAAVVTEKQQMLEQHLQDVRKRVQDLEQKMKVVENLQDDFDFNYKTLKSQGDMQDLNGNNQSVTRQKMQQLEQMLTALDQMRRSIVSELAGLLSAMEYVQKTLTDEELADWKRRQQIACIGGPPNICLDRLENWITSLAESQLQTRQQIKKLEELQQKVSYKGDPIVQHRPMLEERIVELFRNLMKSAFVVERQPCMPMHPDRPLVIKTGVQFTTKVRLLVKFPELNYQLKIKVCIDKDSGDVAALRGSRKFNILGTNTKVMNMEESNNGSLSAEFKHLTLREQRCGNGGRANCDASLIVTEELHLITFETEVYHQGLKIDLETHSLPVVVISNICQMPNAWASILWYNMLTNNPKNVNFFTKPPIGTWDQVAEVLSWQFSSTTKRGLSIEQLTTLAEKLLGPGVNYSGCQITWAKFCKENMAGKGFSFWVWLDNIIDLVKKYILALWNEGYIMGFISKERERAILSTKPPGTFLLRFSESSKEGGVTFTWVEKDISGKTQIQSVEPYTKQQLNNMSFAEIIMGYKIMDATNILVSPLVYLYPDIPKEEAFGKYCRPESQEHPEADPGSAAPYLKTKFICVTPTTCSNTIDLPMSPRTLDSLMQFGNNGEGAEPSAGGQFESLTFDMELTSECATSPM

SMILES	STAT3 inhibitory efficacy, first screening	STAT3 inhibitory efficacy, secondary screening	phosphorylation of STAT tyrosine 705
NC(=O)c1cc(S(=O)(=O)Nc2ccc(O)cc2)cs1 [compound 24, 4-{[(4-hydroxyphenyl)amino]sulfonyl}-2-thiophenecarboxamide]	judged to exert superior STAT3 inhibitory efficacy	–	–
O=C1CN(C(=O)C=Cc2ccccc2)CCN1 [compound 27, 4-cinnamoyl-2-piperazinone]	judged to exert superior STAT3 inhibitory efficacy	–	–
Cc1ccccc1NC(=O)c1cccc(NS(C)(=O)=O)c1 [compound 28, N-(2-methylphenyl)-3-((methylsulfonyl)amino]benzamide]	judged to exert superior STAT3 inhibitory efficacy	–	–
O=C(Nc1ccc(F)cc1)Nc1cccc(C(=O)NCc2ccccc2)c1 [compound 29, N-benzyl-3-({[(4-fluorophenyl)amino]carbonyl}amino)benzamide]	judged to exert superior STAT3 inhibitory efficacy	–	–
CC(C)(C)NC(=O)c1cccc(NC(=O)Nc2ccccc2)c1 [compound 30, 3-[(anilinocarbonyl)amino]-N-(tert-butyl)benzamide]	judged to exert superior STAT3 inhibitory efficacy	–	–
Cc1ccc(S(=O)(=O)NCCc2nc3ccccc3[nH]2)cc1 [compound 31, N-[2-(1H-benzimidazol-2-yl)ethyl]-4-methylbenzenesulfonamide]	judged to exert superior STAT3 inhibitory efficacy	–	–
Cc1ccc(S(=O)(=O)NCc2nc3ccccc3[nH]2)cc1 [compound 32, N-(1H-benzimidazol-2-ylmethyl)-4-methylbenzenesulfonamide]	judged to exert superior STAT3 inhibitory efficacy	–	–
CS(=O)(=O)Nc1cccc(C(=O)NCc2ccncc2)c1 [compound 33, 3-[(methylsulfonyl)amino]-N-(4-pyridinylmethyl)benzamide]	judged to exert superior STAT3 inhibitory efficacy	–	–
Brc1cc2c(cc1CSc1nc3cccnc3[nH]1)OCO2 [compound 34, 2-{[(6-bromo-l,3-benzodioxol-5-yl)methyl]thio}-3H-imidazo[4,5-b]pyridine]	judged to exert superior STAT3 inhibitory efficacy	–	–
O=C(O)[C@@H]1CCCN1S(=O)(=O)c1ccc2[nH]c(=O)c(=O)[nH]c2c1 [compound 35, l-[(2,3-dioxo-l,2,3,4-tetrahydro-6-quinoxalinyl)sulfonyl]proline]	judged to exert superior STAT3 inhibitory efficacy	–	–
CCc1ccc(OC)c(S(=O)(=O)Nc2cccc(O)c2)c1 [compound 36, 5-ethyl-N-(3-hydroxyphenyl)-2-methoxybenzenesulfonamide]	judged to exert superior STAT3 inhibitory efficacy	–	–
OCCCNc1nc(Nc2cccc(O)c2)nc2ccccc12 [compound 37, 3-({4-[(3-hydroxypropyl)amino]-2-quinazolinyl}amino)phenol]	judged to exert superior STAT3 inhibitory efficacy	judged to exert superior STAT3 inhibitory efficacy	significantly inhibited the phosphorylation of STATdml tyrosine 705 in a concentration-dependent manner
O=C(Nc1ccc(Cc2ccc(NC(=O)C(c3ccccc3)c3ccccc3)c(O)c2)cc1O)C(c1ccccc1)c1ccccc1 [compound 38, N,N′-[methylenebis(2-hydroxy-4,1-phenylene)]bis(2,2-diphenylacetamide)]	judged to exert superior STAT3 inhibitory efficacy	–	–
COc1ccccc1C(=O)Nc1ccc(C(=O)N2CCNC2=O)cc1 [compound 41, 2-methoxy-N-{4-[(2-oxo-l-imidazolidinyl)carbonyl]phenyl}benzamide]	judged to exert superior STAT3 inhibitory efficacy	–	–
Cc1[nH]c2ccc(-c3n[nH]c(=S)n3C)cc2c1C [compound 42, 5-(2,3-dimethyl-lH-indol-5-yl)-4-methyl-2,4-dihydro-3H-l,2,4-triazole-3-thione]	judged to exert superior STAT3 inhibitory efficacy	–	–
O=C(Nc1cccnc1)c1cccc(NS(=O)(=O)c2ccccc2)c1 [compound 43, 3-[(phenylsulfonyl)amino]-N-3-pyridinylbenzamide]	judged to exert superior STAT3 inhibitory efficacy	–	–
CS(=O)(=O)Nc1cccc(C(=O)Nc2ccccc2C(=O)NCc2cccnc2)c1 [compound 44, 2-({3-[(methylsulfonyl)amino]benzoyl]amino)-N-(3-pyridinylmethyl)benzamide]	judged to exert superior STAT3 inhibitory efficacy	–	–
O=C(NCC1CCCO1)C1CC(=O)N(c2ccc(O)cc2)C1 (centres unmarked) [compound 45, 1-(4-hydroxyphenyl)-5-oxo-N-(tetrahydro-2-furanylmethyl)-3-pyrrolidinecarboxamide]	judged to exert superior STAT3 inhibitory efficacy	–	–
Cc1ccc(S(=O)(=O)Nc2cccc(C(=O)Nc3cccnc3)c2)cc1 [compound 46, 3-{[(4-methylphenyl)sulfonyl]amino}-N-3-pyridinylbenzamide]	judged to exert superior STAT3 inhibitory efficacy	judged to exert superior STAT3 inhibitory efficacy	significantly inhibited the phosphorylation of STATdml tyrosine 705 in a concentration-dependent manner
